From patent US20020151526A1, “Bile-acid prodrugs of L-dopa and their use in the sustained treatment of parkinsonism” (priority 2000, published 2002)

How the values were obtained:
[1] = cited from earlier work; for half-life: human, in vivo
Human IBAT Transporter = biological target: T1, Human IBAT Transporter (Homo sapiens, UniProt Q12908); experiment: Electrogenic transport in Xenopus oocytes expressing IBAT; type: cell-based; details: relative to glycodeoxycholate, test compound 100 μM
T1 sequence (Q12908 1-348): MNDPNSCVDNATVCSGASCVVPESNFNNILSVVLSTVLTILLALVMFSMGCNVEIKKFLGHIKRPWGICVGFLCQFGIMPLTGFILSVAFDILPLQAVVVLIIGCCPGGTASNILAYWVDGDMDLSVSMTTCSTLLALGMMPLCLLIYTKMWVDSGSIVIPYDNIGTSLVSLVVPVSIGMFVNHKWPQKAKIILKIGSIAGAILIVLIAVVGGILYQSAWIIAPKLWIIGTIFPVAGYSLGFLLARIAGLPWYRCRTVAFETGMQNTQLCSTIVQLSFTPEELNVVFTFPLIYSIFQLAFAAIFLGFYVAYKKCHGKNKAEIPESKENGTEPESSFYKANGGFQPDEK
Method: Human IBAT Transporter cDNAs were subcloned into a modified pGEM plasmid that contains 5′ and 3′ untranslated sequences from the Xenopus β-actin gene. These sequences increase RNA stability and protein expression. Plasmid cDNA was linearized and used as template for in vitro transcription (Epicentre Technologies transcription kit, 4:1 methylated:non-methylated GTP).
Xenopus oocyte isolation. Xenopus laevis frogs were anesthetized by immersion in Tricaine ([…] in deionized water) for 15 min. Oocytes were removed and digested in frog ringer solution (90 mM NaCl, 2 mM KCl, 1 mM MgCl2, 10 mM NaHEPES, pH 7.45, no CaCl2) with 1 mg/mL collagenase (Worthington Type 3) for 80-100 min with shaking. The oocytes were washed 6 times, and the buffer changed to frog ringer solution containing CaCl2(1.8 mM). Remaining follicle cells were removed if necessary. Cells were incubated at 16° C., and each oocyte injected with […] RNA in […] solution.
Electrophysiology measurements. Transport currents were measured 2-14 days after injection, using a standard two-electrode electrophysiology set-up (Geneclamp 500 amplifier, Digidata 1320/PCLAMP software and ADInstruments hardware and software were used for signal acquisition). Electrodes ([…]) were microfabricated using a Sutter Instrument puller and filled with 3M KCl. The bath was directly grounded (transporter currents were less than 0.3 μA). Bath flow was controlled by an automated perfusion system (ALA Scientific Instruments, solenoid valves).
For transporter pharmacology, oocytes were clamped at −60 to −90 mV, and continuous current measurements acquired using PowerLab Software and an ADInstruments digitizer. Current signals were lowpass filtered at 20 Hz and acquired at 4-8 Hz. All bath and drug-containing solutions were frog ringers solution containing CaCl2. Drugs were applied for 10-30 seconds until the induced current reached a new steady-state level, followed by a control solution until baseline currents returned to levels that preceded drug application. […]

Row | Molecule | half-life [1] [h] | % Max. (GDC) response (Human IBAT Transporter) [%] | oral bioavailability of levodopa ([1]; from conventional formulations of levodopa/carbidopa (e.g. Sinemet)) | administered dose reaching the CNS intact ([1]; in patients)
1 | C[C@@](Cc1ccc(O)c(O)c1)(NN)C(=O)O [carbidopa] | ~2 | – | – | –
2 | CC(CCC(=O)NC(Cc1ccc(O)c(O)c1)C(=O)O)C1CCC2C3C(O)CC4CC(O)CCC4(C)C3CC(O)C12C (stereo not shown) [(101), Cholyl-DOPA] | – | 0 | – | –
3 | N[C@@H](Cc1ccc(O)c(O)c1)C(=O)O [levodopa, L-dihydroxyphenylalanine] | ~2 | – | 84-99% | less than 1%
4 | C[C@H](CCC(=O)N[C@@H](Cc1ccc2oc(=O)oc2c1)C(=O)O)[C@H]1CC[C@H]2[C@@H]3[C@H](O)C[C@@H]4C[C@H](O)CC[C@]4(C)[C@H]3C[C@H](O)[C@]12C [(104), Cholyl-Dopa-(3,4-carbonate)] | – | 25 | – | –
5 | Cholyl-DOPA-(4-pivaloyloxymethyl) [(102)] | – | 104 | – | –
